# Source: ChEMBL document CHEMBL3044671, “Synthesis and in vitro antimicrobial and anti-tubercular evaluation of some quinoline-based azitidinone and thiazolidinone analogues” (2013)
# Tests used:
# Assay type in all cases: functional
# Aspergillus niger [1] = assay: Antimicrobial activity against Aspergillus niger MTCC 282 assessed as growth inhibition by agar streak dilution method
# Escherichia coli [2] = assay: Antimicrobial activity against Escherichia coli MTCC 739 assessed as diameter of growth zone inhibition by agar streak dilution method; also: test concentration or dose not given here
# Bacillus subtilis [3] = assay: Antimicrobial activity against Bacillus subtilis MTCC 430 assessed as diameter of growth zone inhibition by agar streak dilution method; also: test concentration or dose not given here
# Staphylococcus aureus [4] = assay: Antimicrobial activity against Staphylococcus aureus MTCC 96 assessed as growth inhibition by agar streak dilution method
# [5] = system: Mycobacterium tuberculosis; assay: Antitubercular activity against Mycobacterium tuberculosis H37Rv assessed as growth inhibition by BACTEC MGIT method
# Aspergillus niger [6] = assay: Antimicrobial activity against Aspergillus niger MTCC 282 assessed as diameter of growth zone inhibition by agar streak dilution method; also: test concentration or dose not given here
# Candida albicans [7] = assay: Antimicrobial activity against Candida albicans MTCC 183 assessed as growth inhibition by agar streak dilution method
# Staphylococcus aureus [8] = assay: Antimicrobial activity against Staphylococcus aureus MTCC 96 assessed as diameter of growth zone inhibition by agar streak dilution method; also: test concentration or dose not given here
# Bacillus subtilis [9] = assay: Antimicrobial activity against Bacillus subtilis MTCC 430 assessed as growth inhibition by agar streak dilution method
# Candida albicans [10] = assay: Antimicrobial activity against Candida albicans MTCC 183 assessed as diameter of growth zone inhibition by agar streak dilution method; also: test concentration or dose not given here
# Escherichia coli [11] = assay: Antimicrobial activity against Escherichia coli MTCC 739 assessed as growth inhibition by agar streak dilution method
# Pseudomonas aeruginosa [12] = assay: Antimicrobial activity against Pseudomonas aeruginosa MTCC 741 assessed as diameter of growth zone inhibition by agar streak dilution method; also: test concentration or dose not given here
# Pseudomonas aeruginosa [13] = assay: Antimicrobial activity against Pseudomonas aeruginosa MTCC 741 assessed as growth inhibition by agar streak dilution method
Structure (SMILES),MIC (Aspergillus niger [1]),diameter of the inhibition zone (DIZ) (Escherichia coli [2]),diameter of the inhibition zone (DIZ) (Bacillus subtilis [3]),MIC (Staphylococcus aureus [4]),MIC [5],diameter of the inhibition zone (DIZ) (Aspergillus niger [6]),MIC (Candida albicans [7]),diameter of the inhibition zone (DIZ) (Staphylococcus aureus [8]),MIC (Bacillus subtilis [9]),diameter of the inhibition zone (DIZ) (Candida albicans [10]),MIC (Escherichia coli [11]),diameter of the inhibition zone (DIZ) (Pseudomonas aeruginosa [12]),MIC (Pseudomonas aeruginosa [13])
O=C1C(Cl)C(c2cc3ccccc3nc2S)N1c1ccccc1 (stereo not drawn),100 µg/mL,<10 mm,17 mm,100 µg/mL,1000 µg/mL,<10 mm,100 µg/mL,17 mm,100 µg/mL,<10 mm,100 µg/mL,<10 mm,100 µg/mL
Cc1ccccc1N1C(=O)C(Cl)C1c1cc2ccccc2nc1S (stereo not drawn),100 µg/mL,<10 mm,<10 mm,62.5 µg/mL,500 µg/mL,18 mm,100 µg/mL,21 mm,100 µg/mL,20 mm,100 µg/mL,19 mm,100 µg/mL
Cc1cccc(N2C(=O)C(Cl)C2c2cc3ccccc3nc2S)c1 (stereo not drawn),100 µg/mL,17 mm,18 mm,100 µg/mL,500 µg/mL,19 mm,100 µg/mL,19 mm,100 µg/mL,18 mm,100 µg/mL,<10 mm,100 µg/mL
Cc1ccc(N2C(=O)C(Cl)C2c2cc3ccccc3nc2S)cc1 (stereo not drawn),100 µg/mL,18 mm,19 mm,100 µg/mL,250 µg/mL,17 mm,100 µg/mL,18 mm,100 µg/mL,15 mm,100 µg/mL,18 mm,100 µg/mL
O=C1C(Cl)C(c2cc3ccccc3nc2S)N1c1ccccc1[N+](=O)[O-] (stereo not drawn),25 µg/mL,21 mm,22 mm,62.5 µg/mL,500 µg/mL,23 mm,62.5 µg/mL,22 mm,62.5 µg/mL,21 mm,62.5 µg/mL,24 mm,25 µg/mL
O=C1C(Cl)C(c2cc3ccccc3nc2S)N1c1cccc([N+](=O)[O-])c1 (stereo not drawn),12.5 µg/mL,22 mm,22 mm,50 µg/mL,250 µg/mL,24 mm,100 µg/mL,22 mm,50 µg/mL,20 mm,50 µg/mL,23 mm,50 µg/mL
O=C1C(Cl)C(c2cc3ccccc3nc2S)N1c1ccc([N+](=O)[O-])cc1 (stereo not drawn),12.5 µg/mL,25 mm,24 mm,50 µg/mL,250 µg/mL,24 mm,100 µg/mL,24 mm,25 µg/mL,20 mm,12.5 µg/mL,24 mm,12.5 µg/mL
O=C1C(Cl)C(c2cc3ccccc3nc2S)N1c1ccccc1Cl (stereo not drawn),62.5 µg/mL,23 mm,25 mm,6.25 µg/mL,125 µg/mL,20 mm,100 µg/mL,24 mm,12.5 µg/mL,19 mm,50 µg/mL,22 mm,50 µg/mL
O=C1C(Cl)C(c2cc3ccccc3nc2S)N1c1cccc(Cl)c1 (stereo not drawn),50 µg/mL,22 mm,25 mm,12.5 µg/mL,125 µg/mL,25 mm,62.5 µg/mL,24 mm,12.5 µg/mL,21 mm,62.5 µg/mL,23 mm,62.5 µg/mL
O=C1C(Cl)C(c2cc3ccccc3nc2S)N1c1ccc(Cl)cc1 (stereo not drawn),25 µg/mL,24 mm,25 mm,6.25 µg/mL,62.5 µg/mL,25 mm,100 µg/mL,26 mm,6.25 µg/mL,22 mm,25 µg/mL,24 mm,25 µg/mL
O=C1C(Cl)C(c2cc3ccccc3nc2S)N1c1ccc(F)cc1 (stereo not drawn),12.5 µg/mL,24 mm,25 mm,6.25 µg/mL,62.5 µg/mL,25 mm,25 µg/mL,26 mm,6.25 µg/mL,24 mm,12.5 µg/mL,23 mm,25 µg/mL
